The results in this text go back to PMC5514153, “Targeting PTPRZ inhibits stem cell-like properties and tumorigenicity in glioblastoma cells” (Scientific Reports, 2017).

One assay concerns the target T1, hPTPRA (Homo sapiens, UniProt P18433).
T1 construct: Recombinant proteins corresponding to the entire intracellular regions (ICRs) of PTPRZ1, PTPRA, and PTPRM; made in house; host or cells: baculovirus-silkworm expression system
In words: In vitro PTPase assay (DiFMUP), PTPRA. The assay is classed as biochemical. As to conditions: 60-min preincubation. The protocol:
(§1) Figure 4 NAZ2329, an allosteric inhibitor of R5 RPTP subfamily members. (A) Structure of NAZ2329. (B) Effect of preincubation of NAZ2329 on its inhibitory activity against PTPRZ. Recombinant human PTPRZ1 enzyme (the whole intracellular region) was premixed with NAZ2329 for the indicated times and followed by addition of a fluorogenic DiFMUP (non-specific PTP substrate, 6,8-difluoro-4-methylumbiliferyl phosphate) to measure PTP inhibitory activity. (C) Time dependence. The PTPRZ1 enzyme was added to the inhibitor–substrate mixture, and the inhibitory activity was determined at each time point relative to the vehicle control. (D) Reversibility of inhibition. […] The mixture was then 20-fold diluted, and recovered PTP activity was expressed as the relative activity compared with the vehicle-treated enzyme. […] PTPRZ1 enzymes were preincubated with NAZ2329 for 60 min, and the PTP activity was measured using DiFMUP. […]
(§2) Recombinant proteins corresponding to the entire intracellular regions (ICRs) of PTPRZ1, PTPRA, and PTPRM were expressed using a baculovirus-silkworm expression system, and purified as described. The ICRs of PTPRG, PTPRS, and PTPRB and the catalytic domains of PTPN1 and PTPN6 were expressed as glutathione-S-transferase (GST) fusion proteins from each pGEX plasmid in Escherichia coli strain BL21 (ref. [6]). […]

For the next assay, the target named is T2, hPTPRM (Homo sapiens, UniProt P28827).
T2 construct: Recombinant proteins corresponding to the entire intracellular regions (ICRs) of PTPRZ1, PTPRA, and PTPRM; made in house; host or cells: baculovirus-silkworm expression system
The assay is described as follows: In vitro PTPase assay (DiFMUP), PTPRM. The assay is classed as biochemical. To be noted: 60-min preincubation. The protocol:
as §1, §2

Molecules are shown by their SMILES.

T2 sequence (P28827 765-1452 limits assumed): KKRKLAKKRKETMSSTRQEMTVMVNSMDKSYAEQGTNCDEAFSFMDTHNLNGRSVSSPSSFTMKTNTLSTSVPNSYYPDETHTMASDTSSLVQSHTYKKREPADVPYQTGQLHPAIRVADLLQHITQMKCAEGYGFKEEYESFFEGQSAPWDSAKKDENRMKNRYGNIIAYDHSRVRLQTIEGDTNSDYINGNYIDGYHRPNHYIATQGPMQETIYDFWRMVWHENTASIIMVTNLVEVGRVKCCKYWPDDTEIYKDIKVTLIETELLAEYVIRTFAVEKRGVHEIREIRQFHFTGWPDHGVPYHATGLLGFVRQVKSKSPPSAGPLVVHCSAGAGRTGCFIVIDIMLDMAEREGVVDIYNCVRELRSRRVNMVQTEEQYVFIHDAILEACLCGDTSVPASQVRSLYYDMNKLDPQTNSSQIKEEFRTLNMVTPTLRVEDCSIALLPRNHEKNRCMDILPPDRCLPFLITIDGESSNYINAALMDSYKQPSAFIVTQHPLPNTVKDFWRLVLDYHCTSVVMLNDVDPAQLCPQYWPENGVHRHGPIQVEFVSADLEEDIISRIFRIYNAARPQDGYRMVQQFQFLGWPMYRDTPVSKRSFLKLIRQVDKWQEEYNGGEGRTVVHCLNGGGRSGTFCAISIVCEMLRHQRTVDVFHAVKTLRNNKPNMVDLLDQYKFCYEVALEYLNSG

As for `CCOc1ccc(C(F)(F)F)cc1CSc1ccsc1C(=O)NS(=O)(=O)c1ccccc1` [NAZ2329], the IC50 was determined as 35.7 µM against hPTPRA and 56.7 µM at hPTPRM.

As a reminder, the IC50 is the concentration at which inhibition is half-maximal.
